Reference: patent US20160279063A1, “COMPOSITION OF EXCIPIENTS AND PHARMACEUTICAL FORMS WITH SUSTAINED RELEASE AND INCREASED BIOAVAILABILITY OF ANTIBACTERIAL DRUGS, ANTICOCCIDIAL DRUGS AND OTHER DRUGS FOR COMMERCIAL POULTRY AND PIGS” (priority 2012, published 2016)
Counter-ions that a name gives are not always drawn. Like-named read-outs stand apart in the source and are kept apart here. One block for each compound: values may come before it.

Legend:
[1] = cited from earlier work
[2] = pigs, cited from earlier work; for F (bioavailability): conventional oral administration
[3] = Background bioavailability and elimination of drugs in pigs; conditions: associated to FOLA system, single dose in the morning with food
From the text: Serum concentrations are not reached by night and in breeding sows doses should be 3000 ppm as they only eat an average of 2 kg with a weight of 300 kg. This is obviously not performed as they would reject food. • Tylosin and tiamulin are often underdosed due to costs. […] FOLA system achieves that easily even better than if that would have been injected. • Provision of phosphomycin in food is not useful since its F is below 20% and is eliminated in a few hours. Associated to FOLA system the results allow a single dose in the morning with food reaching F close to 100% and during 24 hours.

[4] = Tylosin tartrate pharmacokinetics, FOLA vs commercially available, 200 ppm in food; format: in vivo, commercial poultry; conditions: when included in FOLA system, food ad libitum, poultry of 1.9 kg
From the text: Note generation of concentrations quite higher than traditional system (Cmax, MRT and AUC), which makes suitable its PK/PD ratio when included in FOLA system.
For Tylosin in commercial poultry, very high concentrations are achieved when FOLA system is used and which remain with therapeutic effect along night as shown in charts of FIGS. 4a and 4b. Variables disclosed below are pharmacokinetically obtained for tylosin in FOLA and a commercially available reference preparation: […]

[5] = humans; cited from earlier work
[6] = Florphenicol pharmacokinetics, FOLA vs commercially available, 20 mg/kg, 3 days; format: in vivo, commercial poultry; conditions: along three days, 20 mg/kg in food, when included in FOLA system
Protocol: Note generation of concentrations higher than traditional system (Cmax, MRT and AUC), which makes suitable its PK/PD ratio when included in FOLA system.
Note a generation of concentrations lower than 3 μg/mL, making suitable its PK/PD ratio when included in FOLA system.
Tests in Commercial Poultry
Variables disclosed below are pharmacokinetically obtained for florphenicol in FOLA and a commercially available reference preparation administered during 3 days: […]

[7] = commercial poultry, conventional oral administration

SMILES: CC[C@H]1OC(=O)C[C@@H](O)[C@H](C)[C@@H](O[C@@H]2O[C@H](C)[C@@H](O[C@H]3C[C@@](C)(O)[C@@H](O)[C@H](C)O3)[C@H](N(C)C)[C@H]2O)[C@@H](CC=O)C[C@@H](C)C(=O)/C=C/C(C)=C/[C@@H]1CO[C@@H]1O[C@H](C)[C@@H](O)[C@@H](OC)[C@H]1OC [Tylosin]
F (bioavailability) [1, 7]: < 40%

SMILES: CN(C)[C@@H]1C(O)=C(C(N)=O)C(=O)[C@@]2(O)C(O)=C3C(=O)c4c(O)ccc(Cl)c4[C@@](C)(O)[C@H]3C[C@@H]12 [chlortetracycline]
F (bioavailability) [1, 7]: 20%

SMILES: C[C@@H]1O[C@@H]1P(=O)(O)O [Phosphomycin]
time to removal from plasma and tissues ([1]; in water, usual doses 10-40 mg/kg/day): 6 to 8 h
F (bioavailability) [2]: below 20%
F (bioavailability) [3]: ~100%

SMILES: CN[C@@H]1[C@H](O)[C@H](NC)[C@H]2O[C@@]3(O)C(=O)C[C@@H](C)O[C@H]3O[C@@H]2[C@H]1O [Spectinomycin]
F (bioavailability) [2]: 7%

SMILES: CN(C)[C@@H]1C(O)=C(C(N)=O)C(=O)[C@@]2(O)C(O)=C3C(=O)c4c(O)cccc4[C@@](C)(O)[C@H]3[C@H](O)[C@@H]12 [Oxytetracycline]
F (bioavailability) [1, 7]: 20%
F (bioavailability) ([1]; commercial poultry, conventional oral administration, listed as oxytetracycline base): around 20%

SMILES: CC[C@H]1OC(=O)C[C@@H](O)[C@H](C)[C@@H](O[C@@H]2O[C@H](C)[C@@H](O[C@H]3C[C@@](C)(O)[C@@H](O)[C@H](C)O3)[C@H](N(C)C)[C@H]2O)[C@@H](CC=O)C[C@@H](C)C(=O)/C=C/C(C)=C/[C@@H]1CO[C@@H]1O[C@H](C)[C@@H](O)[C@@H](OC)[C@H]1OC [tylosin tartrate]
concentrations reached (FIG. 4b) [4]: exceeding 1.5 μg/mL

SMILES: CC[C@H]1OC(=O)[C@H](C)[C@@H](O[C@H]2C[C@@](C)(OC)[C@@H](O)[C@H](C)O2)[C@H](C)[C@@H](O[C@@H]2O[C@H](C)C[C@H](N(C)C)[C@H]2O)[C@](C)(O)C[C@@H](C)C(=O)[C@H](C)[C@@H](O)[C@]1(C)O [Erithromycin]
F (bioavailability) ([1]; in vivo, po): 18%

SMILES: COc1cc(Cc2cnc(N)nc2N)cc(OC)c1OC [TMP, trimethoprim]
T½β ([1]; birds): 1 h
elimination half-life [2]: 1 h
T½β [5]: 10 h

serum concentrations (FIG. 8b) [6]: lower than 3 μg/mL
SMILES: CS(=O)(=O)c1ccc([C@@H](O)[C@@H](CF)NC(=O)C(Cl)Cl)cc1 [Florphenicol]

SMILES: CCC[C@@H]1C[C@@H](C(=O)N[C@@H]([C@H]2O[C@H](SC)[C@H](O)[C@@H](O)[C@H]2O)[C@@H](C)O)N(C)C1 [Lincomycin]
life [2]: ≥ 20%
